According to patent US12287326B2, “Fluorescent turn-on chemosensors for detection of aluminum ion and azide” (Morgan State University, priority 2019, dated 2025):

Test: Fluorescence titration of sensors with Al^3+
Details: λex=510 nm, emission 585 nm
Procedure: All reagents and solvents were purchased as analytical-grade and used without further purification unless otherwise stated. Stock solutions of metal ions were prepared from their nitrate and chloride salts and anion species from their tetrabutylammonium salts. Distilled deionized water was used throughout the experiments. ^1H-NMR and 13C-NMR spectra were recorded using an Avance 400 MHz spectrometer (BRUKER® Billerica, Karlsruhe, Germany) with tetramethylsilane (TMS) as internal standard and deuterated chloroform (CDCl3) as solvent. NMR spectra were analyzed using MestReNova software (version 10, Mestrela Research, Feliciano Barrera-Bajo, Spain). The IR spectrum was obtained using FT-IR spectrometer (Shimadzu, IRAffinity-1S, Columbia, MD, USA). […] All UV-vis spectroscopy experiments were recorded using a Cary UV/vis spectrophotometer 5000 (VARIAN®, Walnut Creek, CA, USA). Fluorescence emission spectra experiments were measured using a Cary 60 series spectrometer (AGILENT® Walnut Creek, CA, USA), with excitation and emission slit widths of 5 nm and excitation wavelength at 510 nm. […]
All spectroscopic measurements were carried out in aqueous CH3CN medium at room temperature. […] Each fluorescence titration was repeated at least thrice until consistent values were obtained. […] The association constant (K) was calculated from absorbance studies by the linear Benesi-Hildebrand equation. […]

Structure (SMILES) | detection limit for Al^3+ ions
CCN(CC)c1ccc2c(c1)Oc1cc(N(CC)CC)ccc1C21c2ccccc2C(=O)N1/N=C/c1c(OC)ccc2ccccc12 [L1] | 32 µM
CCN(CC)c1ccc2c(c1)Oc1cc(N(CC)CC)ccc1C21c2ccccc2C(=O)N1/N=C/c1cc(Br)cc(OC)c1O [L2] | 47 µM
